Results: patent US20120108855A1, “INCREASED EXPRESSION OF TRANSHYDROGENASE GENES AND THEIR USE IN ETHANOL PRODUCTION” (UNIVERSITY OF FLORIDA RESEARCH FOUNDATION, INC., priority 2009, published 2012)
Where two headings read alike, the source gives them in different places.

How the values were obtained:
[1] = system: E. coli LY180; type: cell-based, Escherichia coli; conditions: for furfural resistance (growth of LY180) with individual amino acid: amino acid 0.1 mM, 50 g liter^-1 xylose, 37 C, 48 hours; for furfural resistance (growth of LY180) with individual amino acid / relief of furfural inhibition of growth by alternative sulfur source: AM1 medium
Protocol: Furfural tolerance was examined by measuring growth in standing tubes with 4 mL total volume of AM1 and 50 g liter^−1 filter-sterilized xylose as described previously (48). Tubes were incubated at 37° C. and measured after 24 hours and 48 hours. Values reported are an average of 4 measurements.
All 20 amino acids were individually tested for their ability to improve the growth of LY180 in AM1 mineral salts medium (FIG. 9A). A concentration of 0.1 mM was selected roughly based on the cellular content of individual amino acids (50).
During growth in AM1 medium containing 1 g liter^−1 furfural, the effects of alternative sulfur sources (L-cysteine, D-cysteine, taurine, and sodium thiosulfate) that enter metabolism at different levels of reduction (FIG. 9D) was compared. Note that 4 NADPH molecules and two reductase enzymes (CysH and CysIJ) are required to fully reduce sulfate prior to assimilation into cysteine. […] D-cysteine cannot be incorporated directly and is first catabolized to H2S (49). Thiosulfate also serves as a source of reduced sulfur for incorporation by CysM (47). Taurine is catabolized to sulfite in the cytoplasm and must be reduced by sulfite reductase (CysIJ and 3 NADPH molecules) prior to assimilation into cysteine (54).

[2] = target: YqhD (Escherichia coli, UniProt Q46856); conditions: cited from earlier work
Chain of YqhD (Q46856 whole entry): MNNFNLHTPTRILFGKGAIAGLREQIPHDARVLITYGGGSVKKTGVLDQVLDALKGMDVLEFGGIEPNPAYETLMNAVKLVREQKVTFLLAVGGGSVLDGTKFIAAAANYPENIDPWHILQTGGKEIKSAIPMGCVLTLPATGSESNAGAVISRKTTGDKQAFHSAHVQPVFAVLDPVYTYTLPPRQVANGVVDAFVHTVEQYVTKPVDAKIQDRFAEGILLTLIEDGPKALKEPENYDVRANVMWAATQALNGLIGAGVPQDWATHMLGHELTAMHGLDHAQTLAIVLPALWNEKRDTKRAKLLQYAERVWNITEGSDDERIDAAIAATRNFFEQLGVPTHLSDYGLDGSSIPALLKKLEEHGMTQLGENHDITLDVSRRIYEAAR

[3] = target: DkgA (Escherichia coli, UniProt Q46857); conditions: read-out: apparent Km for NADPH; cited from earlier work
Chain of DkgA (Q46857 whole entry): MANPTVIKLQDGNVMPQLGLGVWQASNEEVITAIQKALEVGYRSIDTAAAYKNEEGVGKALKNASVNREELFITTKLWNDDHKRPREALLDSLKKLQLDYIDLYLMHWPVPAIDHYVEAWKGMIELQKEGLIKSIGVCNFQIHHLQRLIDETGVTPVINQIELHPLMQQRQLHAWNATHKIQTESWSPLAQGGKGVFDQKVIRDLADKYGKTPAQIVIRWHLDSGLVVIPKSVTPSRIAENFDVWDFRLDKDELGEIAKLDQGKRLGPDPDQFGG

[4] = target: sulfite reductase (CysIJ) (Escherichia coli, UniProt P38038); conditions: read-out: Km for NADPH; cited from earlier work
Chain of sulfite reductase (CysIJ) (P38038 2-599): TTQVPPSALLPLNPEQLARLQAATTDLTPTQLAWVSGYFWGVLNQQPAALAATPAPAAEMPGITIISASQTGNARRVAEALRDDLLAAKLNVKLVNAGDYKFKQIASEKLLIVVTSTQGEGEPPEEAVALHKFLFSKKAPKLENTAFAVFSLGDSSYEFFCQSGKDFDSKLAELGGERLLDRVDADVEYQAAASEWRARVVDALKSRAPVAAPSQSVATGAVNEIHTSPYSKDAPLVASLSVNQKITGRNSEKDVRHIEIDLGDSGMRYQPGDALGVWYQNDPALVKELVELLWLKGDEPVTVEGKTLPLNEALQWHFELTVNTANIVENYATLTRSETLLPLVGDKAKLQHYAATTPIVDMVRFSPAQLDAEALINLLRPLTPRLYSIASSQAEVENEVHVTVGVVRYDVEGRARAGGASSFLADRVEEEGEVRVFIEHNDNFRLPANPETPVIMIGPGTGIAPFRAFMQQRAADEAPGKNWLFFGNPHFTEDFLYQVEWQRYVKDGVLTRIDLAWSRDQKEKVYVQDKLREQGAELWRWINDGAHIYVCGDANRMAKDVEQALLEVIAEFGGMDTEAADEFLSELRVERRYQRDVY
Chain of sulfite reductase (CysIJ) (P17846 2-570, further chain): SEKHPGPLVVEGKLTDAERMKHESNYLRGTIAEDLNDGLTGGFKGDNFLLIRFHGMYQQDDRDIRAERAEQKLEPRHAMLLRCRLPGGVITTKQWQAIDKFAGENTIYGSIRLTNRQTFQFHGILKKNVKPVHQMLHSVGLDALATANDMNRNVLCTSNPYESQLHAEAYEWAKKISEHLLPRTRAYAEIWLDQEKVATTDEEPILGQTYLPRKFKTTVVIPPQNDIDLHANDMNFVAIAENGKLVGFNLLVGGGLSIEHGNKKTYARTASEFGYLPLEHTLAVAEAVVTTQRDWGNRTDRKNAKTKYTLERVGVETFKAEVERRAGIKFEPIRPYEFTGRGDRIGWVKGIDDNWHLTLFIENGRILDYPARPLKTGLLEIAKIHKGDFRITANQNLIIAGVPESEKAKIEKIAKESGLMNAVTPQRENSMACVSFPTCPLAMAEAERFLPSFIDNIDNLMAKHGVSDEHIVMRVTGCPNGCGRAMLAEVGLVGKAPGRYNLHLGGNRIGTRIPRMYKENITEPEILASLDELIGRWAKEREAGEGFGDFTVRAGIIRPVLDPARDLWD

[5] = system: LY180; assay: 5-HMF tolerance in tube cultures, LY180, with cysteine supplements; type: cell-based, Escherichia coli
Protocol: FIG. 17. Effect of L-cysteine on 5-HMF tolerance of LY180. Experiments were performed in tube cultures with AM1 medium containing 50 g l^−1 xylose and 5-HMF (24 h incubation). Cultures were supplemented with filter-sterilized L-cysteine as indicated. All data are plotted as a mean with standard deviation (n=4). A. 1.0 g l^−1 5-HMF; B. 2.0 g 1^−1 5-HMF.
Tolerance to HMF was tested using 13×100 mm closed tubes containing 4 ml AM1 and 5-HMF as indicated. When appropriate, antibiotics were included for plasmid maintenance. Tubes were inoculated to an initial density of 0.05 OD550nm. Growth was measured after incubation (60 rpm) for 48 h using a Spectronic 20D+ spectrophotometer (Thermo, Waltham, Mass.). To examine the effects of pntAB on furan tolerance, a multiwall plate containing 400 μl of AM1 (and 5-HMF or furfural) per well was inoculated as above. OD(420-580nm bandwidth) was measured for 72 h using a Bioscreen C growth analyzer (Oy Growth Curves, Helsinki, Finland).

[6] = system: E. coli LY180; type: cell-based, Escherichia coli; conditions: amino acid 0.5 mM, 1 g liter^-1 furfural, AM1 medium, 48 hours
[7] = system: LY180 strains; assay: Growth of LY180 strains carrying plasmids in the presence of furfural; type: cell-based, Escherichia coli; conditions: 0.10% furfural, after 48 hours
Protocol: LY 180 strains were grown on LB glucose ampicillin plates overnight and each were used to inoculate a tube of AM1 xylose to 3-4 OD. This culture was immediately used to inoculate […] capped tubes containing 4 mL AM1 5% xylose, ampicillin, and an indicated concentration of furfural to 0.05 initial OD. Cultures were grown in a water bath at 37 C and OD 500 nm readings were taken after 24 and 48 hours.
PntAB is a proton translocating transhydrogenase that is not known to function during fermentative growth but is potentially capable of increasing the pool of NADPH (52). In examples 2 and 3, the E. coli […] transhydrogenase PntAB was cloned into pTrc99a and confirmed by sequencing. PntAB with native ribosomal binding site and rho dependent terminator was polymerase chain reaction (PCR) amplified from E. coli strain LY180 genomic DNA using primers with HindIII digestible ends. The PCR product and pTrc099a were HindIII digested, purified using a Qiagen Qiaprep Spin Miniprep Kit, and ligated together using T4 Quick DNA ligase. After transforming the resulting vector into TOP10F′, the plasmid was extracted and used to transform LY180. Orientation was verified by PCR analysis. The empty vector served as a control. Inducer was added prior to inoculation. The growth of LY180 strains carrying plasmids having increasing expression of pntA and pntB genes was compared (FIG. 2A-2B). […]

[8] = Stability of furfural in mineral salts medium; type: physicochemical; conditions: 48 incubation at 37 C
Protocol: Protective concentrations of cysteine (0.05 mM) were 200-fold lower than that of 1 g liter^−1 furfural (10 mM).

[9] = system: E. coli LY180; assay: Microarray analysis of LY180 after furfural addition; type: cell-based, Escherichia coli
Protocol: Cultures were grown in small fermenters to a density of 670 mg dcw liter^−1. An initial sample was removed that served as a control. Furfural was immediately added from a 50 g liter^−1 aqueous stock (0.5 g liter^−1 final concentration) and incubation continued for 15 minutes prior to a second sampling. Samples were rapidly cooled in an ethanol-dry ice bath, harvested by centrifugation at 4° C., resuspended in Qiagen RNA Later and stored at −80° C. RNA was extracted using a Qiagen RNeasy Mini Kit, treated with DNase I and purified by phenol/chloroform extraction and ethanol precipitation. RNA was sent to NimbleGen (Madison, Wis.) for microarray comparisons using probes designed for E. coli K12. Each sample consisted of pooled material from four fermenters. The complete experiment was performed twice and the data was averaged (8 fermentors). Data was analyzed using ArrayStar (DNA Star, Madison, Wis.) and SimPheny software (Genomatica Inc., San Diego, Calif.). Expression ratios are presented as the average of the two pooled datasets.
Message levels were compared in actively growing cells before and 15 min after the addition of 0.5 g liter^−1 furfural. A water control was also included for comparison. […]

[10] = system: LY180; assay: pH-controlled xylose fermentation with 5-HMF, LY180; type: cell-based, Escherichia coli; conditions: 1.0 g l^-1 5-HMF, 100 g l^-1 xylose
Protocol: (§1) Strains and plasmids used in this study have been previously described (70 and 23). These include LY180 (an ethanologenic derivative of E. coli), EMFR9 (furfural-tolerant derivative of LY180), LY180ΔyqhD, LY180ΔdkgA, LY180ΔyqhD ΔdkgA, pLOI4301 containing yqhD. Plasmids pLOI4303 containing dkgA (48), and pLOI4316 containing pntAB (70) were also used. Cultures were grown at 37° C. in AM1 minimal media (23) containing 20 g 1^−1 xylose (solid medium), 50 g l^−1 xylose (Bioscreen C growth analyzer and tube cultures), or 100 g 1^−1 (pH-controlled fermentations).
(§2) For fermentation experiments, seed cultures of LY180 and EMFR9 were grown overnight in small fermentors (37° C., 200 rpm) containing 350 ml of AM1 medium. Broth was maintained at pH 6.5 by the automatic addition of 2 N KOH. Upon reaching mid-log phase, experimental fermenters were inoculated to an initial cell density of 0.1 OD550nm. (33 mg dry cell weight 1^−1). Cell mass (OD550nm) and furan levels were monitored at 12-h intervals as described previously (20).

[11] = system: EMFR9; assay: pH-controlled xylose fermentation with 5-HMF, EMFR9; type: cell-based, Escherichia coli
Protocol: as §1, §2

In the case of `CSCC[C@H](N)C(=O)O` [methionine], the “furfural resistance (growth of LY180) with individual amino acid” value (from here on “furfural resistance (growth of LY180)”) ([1]; 1 g liter^-1 furfural) is reported as “improved furfural resistance”.
With `N[C@H](CS)C(=O)O` [D-cysteine] the “relief of furfural inhibition of growth by alternative sulfur source” value (“relief of furfural inhibition of growth” below) ([1]; 1 g liter^-1 furfural) was “effective”.
With `OCC(O)CO` [glycerol] the “effect on furfural tolerance” value ([1]; glycerol 1.0 to 20 g liter^-1, data not included) was “no effect”.
For `NC(=O)C1=CN([C@@H]2O[C@H](COP(=O)(O)OP(=O)(O)OC[C@H]3O[C@@H](n4cnc5c(N)ncnc54)[C@H](OP(=O)(O)O)[C@@H]3O)[C@@H](O)[C@H]2O)C=CC1` [NADPH], the Km ([2]; read-out: Km for NADPH) is given as 8 µM, the Km ([2]; read-out: apparent Km for NADPH) is given as 8 µM and the Km [3] is given as 23 µM. The Km [4] was 80 µM.
In the case of `O=S(O)(O)=S` [thiosulfate, sodium thiosulfate], the “relief of furfural inhibition of growth” value ([1]; 1 g liter^-1 furfural) is reported as “effective”.
In the case of `N[C@@H](Cc1c[nH]cn1)C(=O)O` [histidine], the “furfural resistance (growth of LY180)” value ([1]; 1 g liter^-1 furfural) is reported as “improved furfural resistance”.
For `N[C@@H](CS)C(=O)O` [cysteine, L-cysteine], the “growth of LY180 with cysteine supplement” value ([5]; 100 uM cysteine, 1 g l^-1 5-HMF) was “completely restored”, the “growth of LY180 with cysteine supplement” value ([5]; 100 uM or 1000 uM cysteine, 2.5 g l^-1 5-HMF) was “not restored” and the “effect of cysteine supplements on the MIC for 5-HMF” value ([5]; LY180) was “did not increase”. The “protective concentration against furfural” value ([1]; 1 g liter^-1 furfural (10 mM)) was 0.05 mM, the “relief of furfural inhibition of growth” value ([1]; 1 g liter^-1 furfural) was “effective” and the “furfural resistance (growth of LY180)” value ([1]; 1 g liter^-1 furfural) was “improved furfural resistance”. The “improvement in furfural resistance” value ([1]; cysteine 0.01 mM) was “No measurable improvement”, the “density to which LY180 grew” value ([1]; cysteine 0.05 mM, 1 g liter^-1 furfural) was 0.8 g/L and the “furfural resistance (growth of LY180)” value [6] was “most effective”.
For `NCCS(=O)(=O)O` [taurine], the “relief of furfural inhibition of growth” value ([1]; 1 g liter^-1 furfural) was “not effective”.
With `N[C@@H](CO)C(=O)O` [serine] the “furfural resistance (growth of LY180)” value ([1]; 1 g liter^-1 furfural) was “improved furfural resistance”.
With `O=Cc1ccco1` [furfural] the “growth of LY180 strains other than pTrc99a-pntAB forward” value [7] was “substantially stopped growing”, the “furfural in mineral salts medium, by characteristic spectrum” value [8] was “remained unchanged” and the “genes with expression altered two-fold or greater” value ([9]; 0.5 g liter^-1 furfural, 15 min) was “approximately 400 genes”. For the same molecule, the “up-regulation of YqhD and DkgA (mRNA)” value ([9]; addition of furfural, parent LY180) was “over 5 fold”.
With `O=Cc1ccc(CO)o1` [5-HMF, 5-hydroxymethyl furfural] the “growth of LY180” value [10] was “completely inhibited”, the “growth of LY180” value ([5]; 1 g l^-1 5-HMF, tube cultures, 24 h) was “partially inhibited” and the “effect on cell yield or ethanol yield of EMFR9” value ([11]; 1.0 g l^-1 5-HMF, fermentation) was “no detrimental effect”. For the same molecule, the “ethanol production and growth of EMFR9” value ([11]; 2.5 g 5-HMF l^-1, fermentation) was “slowed” and the “time to completion of ethanol production and growth of EMFR9” value ([11]; 2.5 g 5-HMF l^-1, fermentation) was 96 h.
For `N=C(N)NCCC[C@H](N)C(=O)O` [arginine], the “furfural resistance (growth of LY180)” value ([1]; 1 g liter^-1 furfural) was “improved furfural resistance”.
